Measurements: US7754718B2 (priority 2004, dated 2010)

Experiments:
[1] = test system: HCV; experiment: Anti-HCV activity in Huh-Luc/neo cell line, luciferase activity after 3-day treatment; format: cell-based, Hepatitis C virus; details: Hepatitis C virus, 72 h; at 3 μM, Huh-Luc/neo cells, 3 days; read-out: HCV percent of inhibition
[2] = test system: HSV-1; experiment: In vitro antiviral assay for HSV-1; format: cell-based, Herpes Simplex Virus 1; details: Human alphaherpesvirus 1, read-out: Antiviral Activities (EC50, μM) HSV-1
How it was run: (§1)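 Performed according to previously reported procedures for each virus; no further conditions are given for the HSV-2, CMV, HIV or EBV assays.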

[3] = test system: HSV-2; experiment: In vitro antiviral assay for HSV-2; format: cell-based, Herpes Simplex Virus 2; details: Human alphaherpesvirus 2, read-out: Antiviral Activities (EC50, μM) HSV-2
How it was run: as §1

[4] = test system: CMV; experiment: In vitro antiviral assay for CMV; format: cell-based, cytomegalovirus; details: Human betaherpesvirus 5, read-out: Antiviral Activities (EC50, μM) CMV
Method: The antiviral assays for HBV, (Doong et al., 1991, Proc. Natl. Acad. Sci. U.S.A. 88:8495-8499) HSV-1, (Bastow et al., 1983, Antimicrob. Agents Chemother. 23: 914-917) HSV-2, (Bastow et al., 1983, Antimicrob. Agents Chemother. 23:914-917) EBV, (Yao et al., 1993, Antimicrob. Agents Chemother. 37:1420-1425), CMV (Andreoni et al., 2002, J. Med. Virol. 67:33-40) and HIV (Mellors et al., 1992, Mol. Pharmacol. 41: 446-451) were performed according to the previously reported procedures. Anti-HCV activities were tested in Huh-Luc/neo cell line. Cells were seeded into 48-well plates and grown until confluent. Different concentrations of drugs were added into media (DMEM, 10% dFBS) and incubated for 3 days. At the end of 3-day treatment, medium were removed and 50 μl of Passive lysis buffer (Promega) were added. Cell lysate was shaken at room temperature for 15 min. 30 μl/well of cell lysate was transferred to another 96-well plate, 100 μl/well of luciferase activity assay substrate was added into plate and read by a luminometer (Amersham) immediately.

[5] = test system: HIV; experiment: In vitro antiviral assay for HIV; format: cell-based, human immunodeficiency virus; details: Human immunodeficiency virus 1, read-out: Antiviral Activities (EC50, μM) HIV, in vitro; (T) after a value means toxic
How it was run: as §1

[6] = Cell cytotoxicity assay on MT-2 cells; format: cell-based; details: human, read-out: Cytotoxity (ID50, μM) MT-2
How it was run: (§2)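 MT-2 and CEM cytotoxicity determined per previously reported procedures. HepG2 cells seeded at 10^4 cells/ml in MEME + 10% FBS, compound added on day 2 for 3 further days at 37° C. Viable layer stained with methylene blue, solubilized in 1% sarcosyl, A595 read.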

[7] = Cell cytotoxicity assay on CEM cells; format: cell-based; details: human, read-out: Cytotoxity (ID50, μM) CEM
How it was run: as §2

[8] = test system: CEM cells; experiment: Cell cytotoxicity assay on CEM cells; format: cell-based; details: Homo sapiens, CCRF-CEM, concentration that inhibited 50% of cell growth, read-out: IC50 (μM) CEM
How it was run: as §2

SMILES: O=C1OCc2c1cc1ccc3c(c1c2-c1ccc2c(c1)OCO2)OCO3 [Compound 2, 10-Benzo[1,3]dioxol-5-yl-9H-furo[3′,4′:6,7]naphtho[1,2-d][1,3]dioxol-7-one, reference compound]
- inhibition at 3 µM [1]: 64%
- EC50 [2]: 2 µM
- EC50 [3]: 35 µM
- EC50 [4]: 7.3 µM
- EC50 [5]: > 2.5 µM
- IC50 [6]: 2.5 µM
- IC50 [7]: 31 µM
- IC50 [8]: 32 µM

SMILES: Nc1ccn([C@@H]2CS[C@H](CO)O2)c(=O)n1 [Compound 3TC, (−)-(2R,5S)-1-[2-(hydroxymethyl)oxathiolan-5-yl]cytosine]
- IC50 [8]: > 100 µM

SMILES: COc1ccc(-c2c3c(cc4ccc5c(c24)OCO5)C(=O)NC3)cc1OC [Compound 22, 10-(3,4-Dimethoxy-phenyl)-8,9-dihydro-1,3-dioxa-8-aza-dicyclopenta[a,g]naphthalen-7-one]
- inhibition at 3 µM [1]: 80%
- EC50 [2]: 0.6 µM
- EC50 [3]: 0.5 µM
- EC50 [5]: > 16 µM
- IC50 [6]: 16 µM
- IC50 [7]: 5 µM
- IC50 [8]: 3.6 ± 1.2 µM
- melting point: 258 °C (dec.)
